Data reported in PubChem BioAssay (NCI).
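Exposure lasted 48 hours, with cells grown in 96-well plates and compounds tested at five concentrations. GI50 = concentration required for 50% inhibition of growth. TGI: total growth inhibition.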

Tests used:
Assay in all cases: growth of human tumour cells (NCI), 48 h
TK-10 renal = tested on: TK-10 renal
EKVX NSCLC = tested on: EKVX NSCLC
SN12C renal = tested on: SN12C renal
NCI-H226 lung = tested on: NCI-H226 lung
COLO 205 colon = tested on: COLO 205 colon
A549 NSCLC = tested on: A549 NSCLC
MALME-3M melanoma = tested on: MALME-3M melanoma
ACHN renal = tested on: ACHN renal

Row | Structure (SMILES) | GI50 (TK-10 renal) | TGI (TK-10 renal) | GI50 (EKVX NSCLC) | TGI (EKVX NSCLC) | GI50 (SN12C renal) | TGI (SN12C renal) | GI50 (NCI-H226 lung) | TGI (NCI-H226 lung) | GI50 (COLO 205 colon) | TGI (COLO 205 colon) | TGI (A549 NSCLC) | GI50 (MALME-3M melanoma) | TGI (MALME-3M melanoma) | GI50 (ACHN renal) | TGI (ACHN renal) | GI50 (A549 NSCLC)
1 | O=C(/C=C/c1cc2ccccc2[nH]c1=O)/C=C/c1cc2ccccc2[nH]c1=O | 11.6 µM | > 60.7 µM | 22.5 µM | > 100 µM | 12.6 µM | > 86.6 µM | 14.9 µM | 38.1 µM | 10.2 µM | > 59.7 µM | > 59.2 µM | > 59.6 µM | > 100 µM | 11.2 µM | > 95.3 µM | –
2 | Cc1ccc(/C=N\NC(=O)c2[nH]c3ccc(F)cc3c2-c2ccccc2)cc1 | 0.0412 µM | > 93.3 µM | 0.0691 µM | > 100 µM | 0.0436 µM | > 100 µM | 0.0321 µM | > 100 µM | 0.0186 µM | 0.0343 µM | > 100 µM | 0.0572 µM | > 80.9 µM | 0.0538 µM | > 100 µM | 0.0344 µM
3 | O=c1[nH]c(=O)n(C2CC(O)C(COP(=O)(OCc3ccc([N+](=O)[O-])o3)N(CCCCCl)CC(O)CO)O2)cc1F (configuration not stated) | 0.326 µM | > 87.7 µM | > 28.2 µM | > 100 µM | < 0.0496 µM | – | 0.157 µM | > 55.2 µM | > 22.5 µM | > 100 µM | > 100 µM | 0.207 µM | > 29.9 µM | < 0.0216 µM | 12.6 µM | < 0.01 µM
4 | CN1CCN(C(=O)c2cc(-c3ccc4ncnc(N5CCc6cc(F)c(Cl)cc65)c4c3)cnc2N)CC1 | 0.178 µM | 1.45 µM | 0.232 µM | 1.55 µM | 0.15 µM | 10.5 µM | 0.309 µM | 2.76 µM | 0.446 µM | 3.5 µM | 1.8 µM | 0.123 µM | 0.843 µM | 0.27 µM | 5.78 µM | 0.194 µM
5 | O=C(/C=C\c1cccc([N+](=O)[O-])c1)/C=C/c1cccc([N+](=O)[O-])c1 | 2.97 µM | 8.7 µM | > 100 µM | > 100 µM | 67 µM | > 100 µM | 15.4 µM | > 100 µM | 3.03 µM | 7.94 µM | 12.2 µM | 37.9 µM | > 100 µM | 4.47 µM | > 100 µM | 3.21 µM
6 | COc1ccc(-c2cc(-c3ccc(C)cc3)nc3nc(=S)[nH]c(N)c23)cc1 | 22.8 µM | 57.5 µM | 25.8 µM | 96 µM | 20.5 µM | 48.6 µM | 17.5 µM | 41.7 µM | 26.8 µM | 91.6 µM | > 100 µM | 26.7 µM | 43.3 µM | 18.8 µM | 62.5 µM | 24.3 µM
7 | O=C1OCC2=C1C(c1ccc(Cl)c(Cl)c1)c1cc3c(cc1N2CCO)OCCO3 (configuration not stated) | 0.513 µM | 20 µM | 1.23 µM | > 38.6 µM | 0.688 µM | 20 µM | 0.29 µM | 7.71 µM | 0.21 µM | 1.14 µM | 11.8 µM | 0.249 µM | 25.8 µM | 0.334 µM | 44.9 µM | 0.299 µM
8 | CN[C@@H](C)C(=O)N[C@H](C(=O)N1CCC[C@H]1C(=O)Nc1sc(-c2ncco2)nc1-c1ccccc1)C1CCCCC1 | 57.5 µM | > 100 µM | 42.9 µM | > 100 µM | 38.9 µM | > 71.9 µM | > 100 µM | > 100 µM | 18.7 µM | 37.9 µM | > 100 µM | 3.91 µM | 19.4 µM | 19.3 µM | > 54.9 µM | 80.5 µM
9 | CC(=O)OC12C=C(C)C(C(C)C1)C1C(=O)N(CCN3CCOCC3)C(=O)C12 (configuration not stated) | > 100 µM | > 100 µM | > 100 µM | > 100 µM | > 100 µM | > 100 µM | > 100 µM | > 100 µM | > 100 µM | > 100 µM | > 100 µM | > 100 µM | > 100 µM | > 100 µM | > 100 µM | > 100 µM
10 | COc1cc2c(cc1OCCCn1c(-c3ccccn3)nc3ccccc31)N=C[C@@H]1CCCN1C2=O | 3.32 µM | 10.9 µM | 5 µM | 40.2 µM | 3.05 µM | 15.1 µM | 0.8 µM | 6.9 µM | 2.22 µM | 4.9 µM | 7.08 µM | 5.32 µM | 11 µM | 2.23 µM | 6.28 µM | 1.87 µM
11 | NC(CSC1c2ccccc2-c2ccccc21)C(=O)O (configuration not stated) | – | > 100 µM | – | > 100 µM | – | > 100 µM | – | > 100 µM | – | > 100 µM | > 100 µM | – | > 100 µM | – | > 100 µM | –
12 | Cc1cc(S(=O)(=O)/N=C(/N)Nc2ccccc2O)c(SCc2ccccc2)cc1Cl | 22.9 µM | 41.2 µM | 11 µM | 37.8 µM | 14.3 µM | 30.4 µM | 33.1 µM | > 100 µM | 23 µM | 47.8 µM | 32.1 µM | 20.3 µM | 38.2 µM | 13 µM | 27.4 µM | 10.2 µM
